Results published in US8969516B2, “Method of hydrolysis of peptide bond” (priority 2006, dated 2015).

Experiment: MALDI-TOF screening of Ni^2+ dependent hydrolysis in a combinatorial peptide library
Type: physicochemical
Settings: Ni^2+ 2 mM, pH 8.2, 10 mM Tris, score=24/tm
How it was run: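 Ni2+ 2 mM, peptide pool 1 mM (total), 10 mM Tris pH 8.2; 37 °C and 45 °C in parallel; MS aliquots at 2/4/6/8 h; products detected visually. X: all proteinogenic residues except Asp, Glu, Cys; Z: all except Cys.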

[1] = CH3CO-Gly-Ala-Ser-X-His-Z-Lys-Phe-Leu-NH2 library, 37° C.
[2] = CH3CO-Gly-Ala-Ser-X-His-Z-Lys-Phe-Leu-NH2 library, 45° C.
[3] = CH3CO-Gly-Ala-Thr-X-His-Z-Lys-Phe-Leu-NH2 library, 37° C.
[4] = CH3CO-Gly-Ala-Thr-X-His-Z-Lys-Phe-Leu-NH2 library, 45° C.

Substance | hydrolysis score from MALDI-TOF screening [1] | hydrolysis score from MALDI-TOF screening [2] | hydrolysis score from MALDI-TOF screening [3] | hydrolysis score from MALDI-TOF screening [4]
Ac-GASGHTKFL-NH2 [SGHT] | 0 (a score of 0 if no trace of the product of hydrolysis was seen after 8 hours of incubation) | 0 (a score of 0 if no trace of the product of hydrolysis was seen after 8 hours of incubation) | – | –
Ac-GASTHKKFL-NH2 [STHK] | 3 (a score of 3 for detection at 8 hours) | 6 (a score of 6 for detection at 4 hours) | – | –
Ac-GATAHRKFL-NH2 [TAHR] | – | – | 0 (a score of 0 if no trace of the product of hydrolysis was seen after 8 hours of incubation) | 0 (a score of 0 if no trace of the product of hydrolysis was seen after 8 hours of incubation)
Ac-GATYHEKFL-NH2 [TYHE] | – | – | 0 (a score of 0 if no trace of the product of hydrolysis was seen after 8 hours of incubation) | 0 (a score of 0 if no trace of the product of hydrolysis was seen after 8 hours of incubation)
Ac-GATFHRKFL-NH2 [TFHR] | – | – | 3 (a score of 3 for detection at 8 hours) | 4 (a score of 4 for detection at 6 hours)
Ac-GASRHIKFL-NH2 [SRHI] | 12 (a score of 12, if it was seen to be partially hydrolysed at 2 hours) | 12 (a score of 12, if it was seen to be partially hydrolysed at 2 hours) | – | –
Ac-GASVHTKFL-NH2 [SVHT] | 0 (a score of 0 if no trace of the product of hydrolysis was seen after 8 hours of incubation) | 0 (a score of 0 if no trace of the product of hydrolysis was seen after 8 hours of incubation) | – | –
Ac-GATGHQKFL-NH2 [TGHQ] | – | – | 0 (a score of 0 if no trace of the product of hydrolysis was seen after 8 hours of incubation) | 0 (a score of 0 if no trace of the product of hydrolysis was seen after 8 hours of incubation)
Ac-GATKHNKFL-NH2 [TKHN] | – | – | 0 (a score of 0 if no trace of the product of hydrolysis was seen after 8 hours of incubation) | 0 (a score of 0 if no trace of the product of hydrolysis was seen after 8 hours of incubation)
Ac-GASTHTKFL-NH2 [STHT] | 0 (a score of 0 if no trace of the product of hydrolysis was seen after 8 hours of incubation) | 0 (a score of 0 if no trace of the product of hydrolysis was seen after 8 hours of incubation) | – | –
Ac-GASPHGKFL-NH2 [SPHG] | 0 (a score of 0 if no trace of the product of hydrolysis was seen after 8 hours of incubation) | 0 (a score of 0 if no trace of the product of hydrolysis was seen after 8 hours of incubation) | – | –
Ac-GASVHMKFL-NH2 [SVHM] | 0 (a score of 0 if no trace of the product of hydrolysis was seen after 8 hours of incubation) | 0 (a score of 0 if no trace of the product of hydrolysis was seen after 8 hours of incubation) | – | –
Ac-GASMHTKFL-NH2 [SMHT] | 0 (a score of 0 if no trace of the product of hydrolysis was seen after 8 hours of incubation) | 0 (a score of 0 if no trace of the product of hydrolysis was seen after 8 hours of incubation) | – | –
Ac-GASLHLKFL-NH2 [SLHL] | 3 (a score of 3 for detection at 8 hours) | 0 (a score of 0 if no trace of the product of hydrolysis was seen after 8 hours of incubation) | – | –
Ac-GATKHLKFL-NH2 [TKHL] | – | – | 4 (a score of 4 for detection at 6 hours) | 12 (a score of 12, if it was seen to be partially hydrolysed at 2 hours)
Ac-GATQHHKFL-NH2 [TQHH] | – | – | 0 (a score of 0 if no trace of the product of hydrolysis was seen after 8 hours of incubation) | 0 (a score of 0 if no trace of the product of hydrolysis was seen after 8 hours of incubation)
Ac-GATTHFKFL-NH2 [TTHF] | – | – | 0 (a score of 0 if no trace of the product of hydrolysis was seen after 8 hours of incubation) | 0 (a score of 0 if no trace of the product of hydrolysis was seen after 8 hours of incubation)
Ac-GASSHLKFL-NH2 [SSHL] | 6 (a score of 6 for detection at 4 hours) | 6 (a score of 6 for detection at 4 hours) | – | –
Ac-GASYHVKFL-NH2 [SYHV] | 6 (a score of 6 for detection at 4 hours) | 4 (a score of 4 for detection at 6 hours) | – | –
Ac-GASQHHKFL-NH2 [SQHH] | 0 (a score of 0 if no trace of the product of hydrolysis was seen after 8 hours of incubation) | 0 (a score of 0 if no trace of the product of hydrolysis was seen after 8 hours of incubation) | – | –

Substance | hydrolysis score from MALDI-TOF screening [1] | hydrolysis score from MALDI-TOF screening [2] | hydrolysis score from MALDI-TOF screening [3] | hydrolysis score from MALDI-TOF screening [4]
Ac-GASLHEKFL-NH2 [SLHE] | 0 (a score of 0 if no trace of the product of hydrolysis was seen after 8 hours of incubation) | 0 (a score of 0 if no trace of the product of hydrolysis was seen after 8 hours of incubation) | – | –
Ac-GATRHWKFL-NH2 [TRHW] | – | – | 12 (a score of 12, if it was seen to be partially hydrolysed at 2 hours) | 12 (a score of 12, if it was seen to be partially hydrolysed at 2 hours)
Ac-GATQHKKFL-NH2 [TQHK] | – | – | 0 (a score of 0 if no trace of the product of hydrolysis was seen after 8 hours of incubation) | 3 (a score of 3 for detection at 8 hours)
Ac-GATNHRKFL-NH2 [TNHR] | – | – | 0 (a score of 0 if no trace of the product of hydrolysis was seen after 8 hours of incubation) | 3 (a score of 3 for detection at 8 hours)
Ac-GATSHSKFL-NH2 [TSHS] | – | – | 0 (a score of 0 if no trace of the product of hydrolysis was seen after 8 hours of incubation) | 0 (a score of 0 if no trace of the product of hydrolysis was seen after 8 hours of incubation)
Ac-GASLHGKFL-NH2 [SLHG] | 0 (a score of 0 if no trace of the product of hydrolysis was seen after 8 hours of incubation) | 0 (a score of 0 if no trace of the product of hydrolysis was seen after 8 hours of incubation) | – | –
Ac-GASNHIKFL-NH2 [SNHI] | 4 (a score of 4 for detection at 6 hours) | 4 (a score of 4 for detection at 6 hours) | – | –
Ac-GATNHYKFL-NH2 [TNHY] | – | – | 0 (a score of 0 if no trace of the product of hydrolysis was seen after 8 hours of incubation) | 0 (a score of 0 if no trace of the product of hydrolysis was seen after 8 hours of incubation)
Ac-GASWHLKFL-NH2 [SWHL] | 6 (a score of 6 for detection at 4 hours) | 12 (a score of 12, if it was seen to be partially hydrolysed at 2 hours) | – | –
Ac-GASTHEKFL-NH2 [STHE] | 0 (a score of 0 if no trace of the product of hydrolysis was seen after 8 hours of incubation) | 0 (a score of 0 if no trace of the product of hydrolysis was seen after 8 hours of incubation) | – | –
Ac-GATQHLKFL-NH2 [TQHL] | – | – | 0 (a score of 0 if no trace of the product of hydrolysis was seen after 8 hours of incubation) | 3 (a score of 3 for detection at 8 hours)
Ac-GASTHFKFL-NH2 [STHF] | 0 (a score of 0 if no trace of the product of hydrolysis was seen after 8 hours of incubation) | 3 (a score of 3 for detection at 8 hours) | – | –
Ac-GASHHFKFL-NH2 [SHHF] | 3 (a score of 3 for detection at 8 hours) | 3 (a score of 3 for detection at 8 hours) | – | –
Ac-GASYHNKFL-NH2 [SYHN] | 0 (a score of 0 if no trace of the product of hydrolysis was seen after 8 hours of incubation) | 0 (a score of 0 if no trace of the product of hydrolysis was seen after 8 hours of incubation) | – | –
Ac-GASKHWKFL-NH2 [SKHW] | 12 (a score of 12, if it was seen to be partially hydrolysed at 2 hours) | 12 (a score of 12, if it was seen to be partially hydrolysed at 2 hours) | – | –
Ac-GASAHIKFL-NH2 [SAHI] | 0 (a score of 0 if no trace of the product of hydrolysis was seen after 8 hours of incubation) | 4 (a score of 4 for detection at 6 hours) | – | –
Ac-GASWHNKFL-NH2 [SWHN] | 0 (a score of 0 if no trace of the product of hydrolysis was seen after 8 hours of incubation) | 0 (a score of 0 if no trace of the product of hydrolysis was seen after 8 hours of incubation) | – | –
Ac-GASGHRKFL-NH2 [SGHR] | 3 (a score of 3 for detection at 8 hours) | 3 (a score of 3 for detection at 8 hours) | – | –
Ac-GASTHPKFL-NH2 [STHP] | 0 (a score of 0 if no trace of the product of hydrolysis was seen after 8 hours of incubation) | 0 (a score of 0 if no trace of the product of hydrolysis was seen after 8 hours of incubation) | – | –
